Reference: patent US20220162163A1, “ALANINE-BASED MODULATORS OF PROTEOLYSIS AND ASSOCIATED METHODS OF USE” (Arvinas Operations, Inc., priority 2015, published 2022)

Target: T1, Androgen receptor (AR) (Homo sapiens, UniProt P10275)
T1 construct: endogenous in cells; host or cells: VCaP
T1 sequence (P10275 1-920): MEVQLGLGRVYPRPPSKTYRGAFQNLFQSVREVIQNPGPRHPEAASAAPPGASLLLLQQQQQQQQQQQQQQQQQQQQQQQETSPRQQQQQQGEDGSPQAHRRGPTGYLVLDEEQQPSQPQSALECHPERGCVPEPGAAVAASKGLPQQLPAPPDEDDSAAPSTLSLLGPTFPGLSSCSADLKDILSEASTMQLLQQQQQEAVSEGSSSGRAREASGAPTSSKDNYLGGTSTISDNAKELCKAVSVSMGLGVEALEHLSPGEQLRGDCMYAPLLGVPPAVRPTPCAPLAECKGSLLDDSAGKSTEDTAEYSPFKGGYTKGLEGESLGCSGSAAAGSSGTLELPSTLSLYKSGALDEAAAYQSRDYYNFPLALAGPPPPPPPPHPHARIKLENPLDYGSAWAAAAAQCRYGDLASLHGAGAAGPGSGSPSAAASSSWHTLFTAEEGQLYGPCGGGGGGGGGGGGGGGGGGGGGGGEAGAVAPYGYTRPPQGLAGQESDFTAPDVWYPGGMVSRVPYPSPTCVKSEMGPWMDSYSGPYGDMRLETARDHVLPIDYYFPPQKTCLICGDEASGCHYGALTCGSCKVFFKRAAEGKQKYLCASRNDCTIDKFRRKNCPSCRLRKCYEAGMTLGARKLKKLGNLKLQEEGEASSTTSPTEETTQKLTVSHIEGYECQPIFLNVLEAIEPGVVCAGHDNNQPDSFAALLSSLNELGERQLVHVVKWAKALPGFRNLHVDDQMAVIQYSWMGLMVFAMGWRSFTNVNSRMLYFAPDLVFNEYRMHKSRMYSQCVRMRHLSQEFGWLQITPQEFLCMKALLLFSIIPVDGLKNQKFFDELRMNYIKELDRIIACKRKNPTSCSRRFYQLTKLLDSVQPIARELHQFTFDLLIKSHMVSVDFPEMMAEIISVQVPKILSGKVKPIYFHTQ
Experiment: Cellular assay of androgen receptor (AR) degradation (VCaP cells, ELISA)
Format: cell-based
Conditions: 4 h; androgen receptor, VCaP cells, PROTAC concentration 1 μM, relative to DMSO control; read-out: Target protein degradation range
Procedure: Protocol of the Cellular Assay of Androgen Receptor (AR) Degradation (VCaP Cells, ELISA).
For detection Cell Signaling PathScan Sandwich Elisa Catalog #12850 Lot 11 was used. VCaP cells were cultured in ATCC DMEM+ATCC FBS and plated 40,000/well 100 μl/well in RPMI P/S with 5% CSS Omega (bovine) serum into a 96 well plate. The cells were grown for a minimum of 3 days, dosed with compounds in 0.1% DMSO (diluted with 5% CSS) and incubated with aspiration for 4 hours. 100 μl of 1× Cell Signaling lysis buffer #9803 (36 ml dH2O+4 ml Cell Signaling lysis buffer) was added. The incubation was placed on cold room shaker for 10 min at speed 8-9. 5 μl to 100 μl of Diluent was transferred to Elisa plate (0.15 ug/ml-0.075 ug/ml) and stored at 4 C overnight on cold room shaker speed 5 (gentle swirl) and then shaken next morning at 37° C. for 30 min. The preparation was washed 4×200 μl with Elisa wash buffer and aspirated with eight-channel aspirator. 100 μl/well of AR detection Ab was added after which the preparation was covered and shaken at 37° C. for 1 hr. 100 ul TMB was added, and the mixture was shaken for 5 min while under observation. When TMB turned light blue, 100 ul of Stop solution was added, and the mixture was shaken and read at 450 nm. Also read at 562 for background subtraction.

Compound | Dmax at 1 µM [%]
CN[C@@H](C)C(=O)N[C@H](C(=O)N1CCC[C@H]1C(=O)N[C@H]1c2ccccc2C[C@H]1OCCOCCOCCOCCOc1ccc(N2C(=S)N(c3ccc(C#N)c(C(F)(F)F)c3)C(=O)C2(C)C)cc1)C(C)(C)C [Example 37] | 0 to 30
CN[C@@H](C)C(=O)N[C@H](C(=O)N1CCC[C@H]1C(=O)N[C@H]1c2ccccc2C[C@H]1OCCOCCOCCOc1ccc(N2C(=S)N(c3ccc(C#N)c(C(F)(F)F)c3)C(=O)C2(C)C)cc1)C(C)(C)C [Example 36, (2S)—N-[2-(2-[2-[2-(4-[3-[4-cyano-3-(trifluoromethyl)phenyl]-5,5-dimethyl-4-oxo-2-sulfanylideneimidazolidin-1-yl]phenoxy)ethoxy]ethoxy]ethoxy)-2,3-dihydro-1H-inden-1-yl]-1-[(2S)-3,3-dimethyl-2-[(2S)-2-(methylamino)propanamido]-butanoyl]pyrrolidine-2-carboxamide] | 0 to 30

More lines, now with the values ahead:

Dmax at 1 µM [%] | Compound
0 to 30 | CN[C@@H](C)C(=O)N[C@H](C(=O)N1CCC[C@H]1c1nc(-c2ccc(OCCOCCOCCNc3ccc(C(=O)N[C@H]4C(C)(C)[C@H](Oc5ccc(C#N)c(Cl)c5)C4(C)C)cc3)c3ccccc23)cs1)C1CCCCC1 [Example 30, 4-[1-(4-[2-[(2S)-1-[(2S)-2-Cyclohexyl-2-[(2S)-2-(methylamino)propanamido]acetyl]pyrrolidin-2-yl]-1,3-thiazol-4-yl]naphthalen-1-yl)-1,4,7-trioxa-10-azadecan-10-yl]-N-[(1r,3r)-3-(3-chloro-4-cyanophenoxy)-2,2,4,4-tetramethylcyclobutyl]benzamide]
0 to 30 | CN[C@@H](C)C(=O)N[C@H](C(=O)N1CCC[C@H]1c1nc(-c2ccc(OCCOCCNc3ccc(C(=O)NC4C(C)(C)C(Oc5ccc(C#N)c(Cl)c5)C4(C)C)cc3)c3ccccc23)cs1)C1CCCCC1 (stereo partly drawn) [Example 29, 4-[(2-[2-[(4-[2-[(2S)-1-[(2S)-2-cyclohexyl-2-[(2S)-2-(methylamino)propanamido]acetyl]pyrrolidin-2-yl]-1,3-thiazol-4-yl]naphthalen-1-yl)oxy]ethoxy]ethyl)amino]-N-[(1r,3r)-3-(3-chloro-4-cyanophenoxy)-2,2,4,4-tetramethylcyclobutyl]benzamide]
0 to 30 | CN[C@@H](C)C(=O)N[C@H](C(=O)N1CCC[C@H]1C(=O)N[C@H]1c2ccccc2C[C@H]1OCCOCCOc1ccc(C(=O)N[C@H]2C(C)(C)[C@H](Oc3ccc(C#N)c(Cl)c3)C2(C)C)cc1)C(C)(C)C [Example 38, 1-[3,3-dimethyl-2-[(2S)-2-(methylamino)propanamido]-butanoyl]-N-[(1S,2R)-2-[2-[2-(4-[[(1r,3r)-3-(3-chloro-4-cyanophenoxy)-2,2,4,4-tetramethylcyclobutyl]carbamoyl]phenoxy)ethoxy]ethoxy]-2,3-dihydro-1H-inden-1-yl]pyrrolidine-2-carboxamide]
0 to 30 | CN[C@@H](C)C(=O)N[C@H](C(=O)N1CCC[C@H]1c1nc(-c2ccc(OCCOCCOCCOCCNc3ccc(C(=O)N[C@H]4C(C)(C)[C@H](Oc5ccc(C#N)c(Cl)c5)C4(C)C)cc3)c3ccccc23)cs1)C1CCCCC1 [Example 31, 4-[1-(4-[2-[(2S)-1-[(2S)-2-cyclohexyl-2-[(2S)-2-(methylamino)propanamido]acetyl]pyrrolidin-2-yl]-1,3-thiazol-4-yl]naphthalen-1-yl)-1,4,7,10-tetraoxa-13-azatridecan-13-yl]-N-[(1r,3r)-3-(3-chloro-4-cyanophenoxy)-2,2,4,4-tetramethylcyclobutyl]benzamide]
30 to 60 | CN[C@@H](C)C(=O)N[C@H](C(=O)N1CC[C@@H]2CCN(CCc3ccc(OCCOCCOCCOCCNc4ccc(C(=O)N[C@H]5C(C)(C)[C@H](Oc6ccc(C#N)c(Cl)c6)C5(C)C)cc4)cc3)C[C@@H]21)C1CCCCC1 (racemic) [Example 33, N-((1r,3r)-3-(3-chloro-4-cyanophenoxy)-2,2,4,4-tetramethylcyclobutyl)-4-(2-(2-(2-(2-(4-(2-(1-((S)-2-cyclohexyl-2-((S)-2-(methylamino)propanamido)acetyl)-octahydropyrrolo[2,3-c]pyridin-6-yl)ethyl)phenoxy)ethoxy)ethoxy)ethoxy)ethylamino)benzamide]

Same assay, conditions: @ 1 μM

Compound | Androgen receptor (AR) degradation in VCaP cells [%]
CN[C@@H](C)C(=O)N[C@H](C(=O)N1CCC[C@H]1C(=O)N[C@H]1c2ccccc2C[C@H]1OCCOCCOCCOc1ccc(C(=O)N[C@H]2C(C)(C)[C@H](Oc3ccc(C#N)c(Cl)c3)C2(C)C)cc1)C(C)(C)C [(2S)-1-[(2S)-3,3-dimethyl-2-[(2S)-2-(methylamino)propanamido]butanoyl]-N-[(1S,2R)-2-(2-{2-[2-(4-{[(1r,3r)-3-(3-chloro-4-cyanophenoxy)-2,2,4,4-tetramethylcyclobutyl]carbamoyl}phenoxy)ethoxy]ethoxy}ethoxy)-2,3-dihydro-1H-inden-1-yl]pyrrolidine-2-carboxamide] | 18
CN[C@@H](C)C(=O)N[C@H](C(=O)N1CCC[C@H]1C(=O)N[C@H]1c2ccccc2C[C@H]1OCCOCCOCCOCCOc1ccc(N2C(=S)N(c3ccc(C#N)c(C(F)(F)F)c3)C(=O)C2(C)C)cc1)C(C)(C)C [drawing 256, (2S)—N-[(1S,2R)-2-{[1-(4-{3-[4-cyano-3-(trifluoromethyl)phenyl]-5,5-dimethyl-4-oxo-2-sulfanylideneimidazolidin-1-yl}phenyl)-1,4,7,10-tetraoxadodecan-12-yl]oxy}-2,3-dihydro-1H-inden-1-yl]-1-[(2S)-3,3-dimethyl-2-[(2S)-2-(methylamino)propanamido]butanoyl]pyrrolidine-2-carboxamide] | 9
CN[C@@H](C)C(=O)N[C@H](C(=O)N1CCC[C@H]1C(=O)N[C@H]1c2ccccc2C[C@H]1OCCOCCOCCOc1ccc(N2C(=S)N(c3ccc(C#N)c(C(F)(F)F)c3)C(=O)C2(C)C)cc1)C(C)(C)C [drawing 255, (2S)—N-[(1S,2R)-2-(2-{2-[2-(4-{3-[4-cyano-3-(trifluoromethyl)phenyl]-5,5-dimethyl-4-oxo-2-sulfanylideneimidazolidin-1-yl}phenoxy)ethoxy]ethoxy}ethoxy)-2,3-dihydro-1H-inden-1-yl]-1-[(2 S)-3,3-dimethyl-2-[(2S)-2-(methylamino)propanamido]butanoyl]pyrrolidine-2-carboxamide] | 9
CN[C@@H](C)C(=O)N[C@H](C(=O)N1CCC[C@H]1C(=O)N[C@H]1c2ccccc2C[C@H]1OCCOCCOCCOCCOCCOc1ccc(C(=O)N[C@H]2C(C)(C)[C@H](Oc3ccc(C#N)c(Cl)c3)C2(C)C)cc1)C(C)(C)C [(2S)-1-[(2S)-3,3-dimethyl-2-[(2S)-2-(methylamino)propanamido]butanoyl]-N-[(1S,2R)-2-{[1-(4-1{[(1r,3r)-3-(3-chloro-4-cyanophenoxy)-2,2,4,4-tetramethylcyclobutyl]carbamoyl}phenyl)-1,4,7,10,13-pentaoxapentadecan-15-yl]oxy}-2,3-dihydro-1H-inden-1-yl]pyrrolidine-2-carboxamide] | 38

Same assay, conditions: androgen receptor, VCaP cells, PROTAC concentration 1 μM, relative to DMSO control

Compound | Target protein degradation range
1-[(2S)-3,3-dimethyl-2-[(2S)-2-(methylamino)propanamido]butanoyl]-N-[(1S,2R)-2-[[1-(4-[[(1r,3r)-3-(3-chloro-4-cyanophenoxy)-2,2,4,4-tetramethylcyclobutyl]carbamoyl]phenyl)-1,4,7,10-tetraoxadodecan-12-yl]oxy]-2,3-dihydro-1H-inden-1-yl]pyrrolidine-2-carboxamide [Example 3] | B (degradation between 30% and 60%)
